In PMC2947314 (Cellular Signalling, 2010):

Molecular target: Sphingosine kinase 1 (SK1) (Homo sapiens, UniProt Q9NYA1)
Assay: […]S1P formation assay, single concentration […]
Assay type: biochemical
Details: read-out: % inhibition at 50 μM

Sequence of Sphingosine kinase 1 (SK1) (Q9NYA1 whole entry): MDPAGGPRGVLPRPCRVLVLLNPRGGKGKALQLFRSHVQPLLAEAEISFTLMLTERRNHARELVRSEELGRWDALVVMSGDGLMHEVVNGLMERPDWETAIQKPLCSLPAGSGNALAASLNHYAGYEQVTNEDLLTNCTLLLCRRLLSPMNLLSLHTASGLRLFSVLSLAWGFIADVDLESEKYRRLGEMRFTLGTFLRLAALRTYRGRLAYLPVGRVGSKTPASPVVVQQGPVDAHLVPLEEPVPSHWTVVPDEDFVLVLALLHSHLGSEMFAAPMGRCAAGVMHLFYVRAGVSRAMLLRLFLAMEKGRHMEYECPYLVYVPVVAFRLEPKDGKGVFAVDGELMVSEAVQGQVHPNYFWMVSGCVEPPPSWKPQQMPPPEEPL

inhibition at 50 µM: ~40%
SMILES: CCCCCCCCc1ccc(CCC(N)(CO)CO)cc1 [FTY720]
